From patent US20150290232A1, “DRUG COMPOSITION FOR TREATING TUMORS AND APPLICATION THEREOF” (priority 2012, published 2015)

Test: Example 4: body weight of tumor-bearing nude mice
Type: in vivo, BALB/c-nu nude mice
Description: Under sterile conditions, the above tumor cells were collected in the logarithmic growth phase. A549 was injected by subcutaneous injection in an amount of 1×10 7/0 2 mL/nude mice (cell viability>90%) into the right subaxillary of the nude mice, and Hep G2 was injected by subcutaneous injection in an amount of 1×10^7/0.2 mL/nude mice (cell viability>90%) into the left subaxillary of the nude mice thus establishing transplated tumor models of lung cancer and liver cancer respectively in nude mice. The administration was carried out from the second day after the inoculation. The experimental group was intragastrically administered at the experimentally designed amount, the negative control group is intragastrically administered with sterile water, and the positive control group was intragastrically administered with Jef. Each mouse was intragastrically administered in 0.4 ml each time and 3 times a day, at 8:00, 14:00 and 20:00. The administrations were successive for 10 days. The day before administration was deemed as Day 0 and the body weight and tumor size of the mice were determined every 5 days to produce a dynamic plot on body weight and tumor growth. On Day 24, the mice were sacrificed and the tumors were taken out and weighed. The tumor inhibition rate (%) was calculated after the effect of the medicament based on a tumor inhibition rate of the control group being zero.
The values determined were presented as mean±standard error (Mean±SD). The experimental data for each group was analyzed with One-way ANOVA method in the SPSS 18.0 statistical software, and p<0.05 means that the differences are statistically significant.

COc1ccc2cc1Oc1ccc(cc1)C[C@H]1c3cc(c(OC)cc3CCN1C)Oc1c(OC)c(OC)cc3c1[C@H](C2)N(C)CC3 [TTD, tetrandrine]
body weight, Final (TTD 50 mg/kg/time intragastric, 3 times a day, 10 days, Day 24, Mean ± SD, n=3): 20.6 ± 1.74 g
body weight, Initial (TTD 50 mg/kg/time intragastric, 3 times a day, 10 days, Mean ± SD, n=3): 21.1 ± 0.25 g
dynamic variation of the body weight (in words) (TTD 50 mg/kg/time, during administration, recovered gradually after termination): partial reduction in the body weight
